Assays:
[1] = format: physicochemical
From the text: In this example, the following two amines are considered: • Amine (1) alone: methyldiethanolamine (MDEoA); • Amine (2) alone: n-heptyldiethanolamine (C7DEoA).
The appended FIG. 1 represents a ternary phase diagram between these 2 amines and water. The percentages are expressed by weight. The miscible mixtures are denoted by points (●), the immiscible mixtures are denoted by crosses (X).
The C7DEoA/water binary mixture is not miscible in all proportions. There is immiscibility when the C7DEoA is found in an amount of greater than 50%. In the area of immiscibility (amount of C7DEoA greater than 50%), the MDEoA acts as a coupling agent (co-solvent) when it is present in a content of greater than 15%.

[2] = Test of neutralization (weight of amine necessary for neutralizing 100 g of oleic acid); format: physicochemical; settings: for Amount necessary for neutralizing 100 g of oleic acid: weight of amine per 100 g of oleic acid
Protocol: The neutralizing capacity is evaluated by determining the weight of amine (in grams) necessary for neutralizing 100 g of oleic acid. In this example, the neutralizing capacities of the following products are compared: • Amine (1) alone: monoethanolamine (MEoA); • Amine (2) alone: n-heptyldiethanolamine ([…]); • Mixture of amine (1)+amine (2): 70% by weight of MEoA+30% by weight of […].

[3] = tested on: Pseudomonas aeruginosa and Staphylococcus aureus; assay: Test of bacterial proliferation, bactericidal and/or bacteriostatic activity according to standard NF EN 1040; format: cell-based; design: key: +: low degree of reduction; ++++: high degree of reduction; settings: surviving bacteria counted after 5 minutes contact at 20° C.
Protocol: A test is carried out in order to evaluate the bactericidal and/or bacteriostatic activity of a sample of the composition of the invention, according to the standard NF EN 1040 (April 2006). A sample of a composition as it is (maximum concentration of the test: 80%) and/or diluted with water is added to a test suspension of bacteria (Pseudomonas aeruginosa and Staphylococcus aureus). The mixture is maintained at 20° C. for 5 minutes. An aliquote portion is removed at the end of this contact time; the bactericidal and/or bacteriostatic activity in this withdrawal is immediately neutralized or suppressed according to a validated method. The method used preferably is the dilution-neutralization method. Filtration over a membrane is used when it is not possible to find a suitable neutralizer. The surviving bacteria in each sample are counted, which makes it possible to calculate the degree of reduction, denoted by “+” (low degree of reduction) to “++++” (high degree of reduction) in table 2 below: […]

n-heptyldiethanolamine [Composition C7DEoA]
amount of C7DEoA in C7DEoA/water binary mixture at which there is immiscibility [1]: greater than 50%
neutralizing capacity (in words) ([2]; oleic acid neutralization): much lower
Amount necessary for neutralizing 100 g of oleic acid [2]: 36 g
Degree of reduction [3]: ++++

NCCO [MEoA, monoethanolamine, reference compound]
Amount necessary for neutralizing 100 g of oleic acid [2]: 6.8 g
Degree of reduction [3]: +
